# According to patent US7833967B2, “Synthetic antimicrobial polypeptides” (priority 2003, dated 2010):
# System: E. coli TOP10
# Assay: Suicide expression system (SES) growth inhibition
# Assay type: cell-based
# [1] = Table 5, mixed-motif library, re-tested in the Bioscreen C
# [2] = Table 4, variants of SEQ ID NO:10, re-tested in the Bioscreen C
# [3] = Table 2, variants of SEQ ID NO:1, re-tested in the Bioscreen C
# [4] = Table 3, variants of SEQ ID NO:5, re-tested in the Bioscreen C
# [5] = Table 1, 0.1% inducer (arabinose), pBAD/gIIIA in E. coli TOP10, Bioscreen C 37° C., end point OD450 vs control vector
Substance,Growth inhibition (%) [1] [%],Growth inhibition (%) [2] [%],further results
294 (RRRPPRLPRPVPFRPPPRFPRPVPLRP; Synthetic antimicrobial peptide) [compound 294],95,,
272 (RRRPPRLPRPLPIRPPPRFPRPIPVRP; Synthetic antimicrobial peptide) [compound 272],91,,
249 (RRRPPRLPRPFPVRPPPRVPRPVPIRP; Synthetic antimicrobial peptide) [compound 249],93,,
257 (RRRPPRLPRPIPVRPPPRFPRPIPFRP; Synthetic antimicrobial peptide) [compound 257],92,,
164 (RRRPFRPPIRPPLRPPFRPPFRPPFRP; Synthetic antimicrobial peptide) [compound 164],,78,
122 (RRRPFRPPFRPPFRPPVRPPFRPPLRP; Synthetic antimicrobial peptide) [compound 122],,64,
165 (RRRPFRPPLRPPFRPPVRPPLRPPVRP; Synthetic antimicrobial peptide) [compound 165],,65,
13 (RRRPPRFPPRFPPRFPPRFPPRFPPRF; Synthetic antimicrobial peptide) [compound 13],,,Growth inhibition (%) [3]: 51%
156 (RRRPFRPPLRPPFRPPFRPPIRPPFRP; Synthetic antimicrobial peptide) [compound 156],,67,
255 (RRRPPRLPRPIPIRPPPRFPRPVPFRP; Synthetic antimicrobial peptide) [compound 255],93,,
97 (RRRPLRPPFRPPFRPPLRPPFRPPIRP; Synthetic antimicrobial peptide) [compound 97],,69,
142 (RRRPLRPPIRPPVRPPFRPPVRPPFRP; Synthetic antimicrobial peptide) [compound 142],,70,
277 (RRRPPRLPRPLPIRPPPRVPRPFPIRP; Synthetic antimicrobial peptide) [compound 277],91,,
138 (RRRPLRPPFRPPVRPPFRPPFRPPFRP; Synthetic antimicrobial peptide) [compound 138],,78,
48 (RRRPRPFPRPFPRPVPRPVPRPVPRPF; Synthetic antimicrobial peptide) [compound 48],,,Growth inhibition (%) [4]: 59%
30 (RRRPRPFPPPFPRPIPRPFPRPFPRPL; Synthetic antimicrobial peptide) [compound 30],,,Growth inhibition (%) [4]: 61%
314 (RRRPPRVPRPLPFRPPPRFPRPIPFRP; Synthetic antimicrobial peptide) [compound 314],94,,
111 (RRRPLRPPVRPPFRPPVRPPLRPPFRP; Synthetic antimicrobial peptide) [compound 111],,59,
312 (RRRPPRVPRPIPIRPPPRVPRPVPFRP; Synthetic antimicrobial peptide) [compound 312],93,,
132 (RRRPFRPPFRPPLRPPVRPPVRPPIRP; Synthetic antimicrobial peptide) [compound 132],,72,
182 (RRRPFRPPIRPPFRPPIRPPVRPPFRP; Synthetic antimicrobial peptide) [compound 182],,83,
23 (RRRPPRLPPRFPPRFPPRVPPRVPPRF; Synthetic antimicrobial peptide) [compound 23],,,Growth inhibition (%) [3]: 82%

Substance,Growth inhibition (%) [1] [%],Growth inhibition (%) [2] [%],further results
205 (RRRPFRPPFRPPIRPPVRPPFRPPFRP; Synthetic antimicrobial peptide) [compound 205],,77,
229 (RRRPPRLPRPFPLRPPPRFPRPFPLRP; Synthetic antimicrobial peptide) [compound 229],95,,
67 (RRRPLRPPLRPPIRPPFRPPVRPPFRP; Synthetic antimicrobial peptide) [compound 67],,80,
318 (RRRTRHVVPRPLPVRPPPRVPRPFPLRP; Synthetic antimicrobial peptide) [compound 318],93,,
108 (RRRPLRPPFRPPIRPPVRPPVRPPFRP; Synthetic antimicrobial peptide) [compound 108],,76,
5 (RRRPRPFPRPFPRPFPRPFPRPFPRPF; Synthetic antimicrobial peptide) [compound 5],,,Growth inhibition (%) [5]: 57%
310 (RRRPPRVPRPFPIRPPPRVPRPVPVRP; Synthetic antimicrobial peptide) [compound 310],93,,
161 (RRRPFRPPVRPPIRPPVRPPFRPPFRP; Synthetic antimicrobial peptide) [compound 161],,78,
154 (RRRPFRPPFRPPVRPPVRPPFRPPFRP; Synthetic antimicrobial peptide) [compound 154],,75,
99 (RRRPFRPPIRPPIRPPFRPPIRPPFRP; Synthetic antimicrobial peptide) [compound 99],,79,
223 (RRRPPRLPRPFPIRPPPRLPRPLPFRP; Synthetic antimicrobial peptide) [compound 223],90,,
235 (RRRPPRLPRPFPLRPPPRVPRPVPFRP; Synthetic antimicrobial peptide) [compound 235],94,,
201 (RRRPFRPPIRPPIRPPFRPPIRPPFRP; Synthetic antimicrobial peptide) [compound 201],,78,
168 (RRRPLRPPFRPPIRPPVRPPLRPPFRP; Synthetic antimicrobial peptide) [compound 168],,71,
265 (RRRPPRLPRPLPFRPPPRLPRPFPVRP; Synthetic antimicrobial peptide) [compound 265],94,,
49 (RRRPRPFPRPLPRPVPRPFPRPVPRPL; Synthetic antimicrobial peptide) [compound 49],,,Growth inhibition (%) [4]: 51%
143 (RRRPFRPPVRPPVRPPFRPPLRPPVRP; Synthetic antimicrobial peptide) [compound 143],,43,
86 (RRRPIRPPFRPPLRPPLRPPVRPPFRP; Synthetic antimicrobial peptide) [compound 86],,74,
18 (RRRPPRLPPRFPPRFPPRIPPRFPPRI; Synthetic antimicrobial peptide) [compound 18],,,Growth inhibition (%) [3]: 99%
29 (RRRPRLPRPFPRPVPRPLPRPVPRPI; Synthetic antimicrobial peptide) [compound 29],,,Growth inhibition (%) [4]: 63%
256 (RRRPPRLPRPIPLRPPPRVPRPIPIRP; Synthetic antimicrobial peptide) [compound 256],91,,
14 (RRRPPRFPPRIPPRFPPRLPPRIPPRL; Synthetic antimicrobial peptide) [compound 14],,,Growth inhibition (%) [3]: 90%

Substance,Growth inhibition (%) [1] [%],Growth inhibition (%) [2] [%],further results
24 (RRRPPRLPPRFPPRFPPRVPPRVPPRF; Synthetic antimicrobial peptide) [compound 24],,,Growth inhibition (%) [3]: 90%
233 (RRRPPRLPRPFPLRPPPRLPRPLPVRP; Synthetic antimicrobial peptide) [compound 233],91,,
283 (RRRPPRLPRPLPVRPPPRFPRPVPFRP; Synthetic antimicrobial peptide) [compound 283],95,,
1 (RRRPPRFPPRFPPRFPPRFPPRFPPRF; Synthetic antimicrobial peptide) [compound 1],,,Growth inhibition (%) [5]: 48%
149 (RRRPIRPPIRPPFRPPFRPPVRPPVRP; Synthetic antimicrobial peptide) [compound 149],,62,
304 (RRRPPRLPRPVPVRPPPRFPRPVPIRP; Synthetic antimicrobial peptide) [compound 304],90,,
135 (RRRPIRPPIRPPIRPPIRPPIRPPLRP; Synthetic antimicrobial peptide) [compound 135],,38,
58 (RRRPRPIPRPFPRPIPRPVPRPFPRPF; Synthetic antimicrobial peptide) [compound 58],,,Growth inhibition (%) [4]: 77%
207 (RRRPPRFPRPFPIRPPPRFPRPIPFRP; Synthetic antimicrobial peptide) [compound 207],93,,
214 (RRRPPRLPRPFPFRPPPRLPRPIPLRP; Synthetic antimicrobial peptide) [compound 214],95,,
234 (RRRPPRLPRPFPLRPPPRVPRPLPIRP; Synthetic antimicrobial peptide) [compound 234],93,,
126 (RRRPIRPPIRPPLRPPFRPPFRPPFRP; Synthetic antimicrobial peptide) [compound 126],,77,
177 (RRRPFRPPIRPPFRPPIRPPVRPPIRP; Synthetic antimicrobial peptide) [compound 177],,75,
190 (RRRPFRPPIRPPFRPPIRPPFRPPFRP; Synthetic antimicrobial peptide) [compound 190],,83,
34 (RRRPRPFPRPFPRPFPRPFPRPFPRPL; Synthetic antimicrobial peptide) [compound 34],,,Growth inhibition (%) [4]: 74%
157 (RRRPIRPPFRPPIRPPFRPPVRPPLRP; Synthetic antimicrobial peptide) [compound 157],,64,
11 (RRRFRPPFRPPFRPPFRPPFRPPFRPP; Synthetic antimicrobial peptide) [compound 11],,,Growth inhibition (%) [5]: 73%
4 (RRRFPPRFPPRFPPRFPPRFPPRFPPR; Synthetic antimicrobial peptide) [compound 4],,,Growth inhibition (%) [5]: 46%
147 (RRRPFRPPFRPPIRPPVRPPVRPPFRP; Synthetic antimicrobial peptide) [compound 147],,79,
206 (RRRPFRPPFRPPFRPPFRPPFRPPFRP; Synthetic antimicrobial peptide) [compound 206],,77,
